Assay [1] in a line: Inhibition of phosphatidyl serine liposome-stimulated sheep brain dynamin 1 GTPase activity assessed as reduction orthophosphate release using GTP as substrate after 30 mins by malachite green reagent based colorimetric assay. More on the design: species or system Ovis aries. Conditions: read-out: IC50.
Assay [2] relates to SW480. Description: Growth inhibition of human SW480 cells after 72 hrs by MTT assay. Conditions: SW480, 72 h. It is filed as functional.
Assay [3] concerns HT-29. The experiment in a line: Growth inhibition of human HT-29 cells after 72 hrs by MTT assay. It is filed as functional. The note with it: HT-29, 72 h. (Formazan colour is commonly taken as a measure of viable cells.)
Assay [4] is described as follows: Growth inhibition of human SMA cells after 72 hrs by MTT assay. It is filed as functional.
Assay [5] concerns MCF7. The experiment in a line: Growth inhibition of human MCF7 cells after 72 hrs by MTT assay. The note with it: MCF7, 72 h. It is filed as functional.
Assay [6] concerns BE(2)-C. Description: Growth inhibition of human BE(2)-C cells after 72 hrs by MTT assay. The assay is classed as functional.
A short description of assay [7]: Growth inhibition of human SJ-G2 cells after 72 hrs by MTT assay. It is filed as functional. The note with it: SJ-G2, 72 h.
Assay [8] deals with MIA PaCa-2. Description: Growth inhibition of human MIAPaCa2 cells after 72 hrs by MTT assay. It is filed as functional. The note with it: MIA PaCa-2, 72 h.
Assay [9] has as its system A2780. Description: Growth inhibition of human A2780 cells after 72 hrs by MTT assay. It is filed as functional. The note with it: A2780, 72 h.
Assay [10] deals with A-431. The experiment in a line: Growth inhibition of human A431 cells after 72 hrs by MTT assay. It is filed as functional. The note with it: A-431, 72 h.
In assay [11] the test system is NCI-H460. Description: Growth inhibition of human NCI-H460 cells after 72 hrs by MTT assay. The note with it: NCI-H460, 72 h. It is filed as functional.
Assay [12] can be described thus: Growth inhibition of human U87 cells after 72 hrs by MTT assay. Conditions: U-87 MG. It is filed as functional, U-87MG ATCC.
The subject of assay [13] is DU-145. Description: Growth inhibition of human DU145 cells after 72 hrs by MTT assay. Conditions: DU-145, 72 h. The assay is classed as functional.
For assay [14], the target named is D(2) dopamine receptor (Homo sapiens) (UniProt P14416). Description: Displacement of [3H]methyl-spiperone from human recombinant D2S receptor in HEK293 cells at 10 uM after 60 mins by scintillation counting relative to control. The assay is classed as cell-based. Conditions: values are per cent of control. Background: Loss of bound radioactivity is the signal in a displacement assay; it reports binding, not function.

The target in assay [15] is Histamine H1 receptor (Homo sapiens) (UniProt P35367). The experiment in a line: Displacement of [3H]pyrilamine from human recombinant histamine H1 receptor in HEK293 cells at 10 uM after 60 mins by scintillation counting relative to control. The assay is classed as cell-based. The note with it: values are per cent of control.
The target of assay [16] is Histamine H2 receptor (Homo sapiens) (UniProt P25021). Description: Displacement of [125I]APT from human recombinant histamine H2 receptor expressed in CHO cells at 10 uM after 120 mins by scintillation counting relative to control. The assay is classed as cell-based. The note with it: values are per cent of control.
Assay [17] deals with Melanocortin receptor 4 (Homo sapiens) (UniProt P32245). The experiment in a line: Inhibition of human recombinant melanocortin 4 receptor expressed in CHO cells at 10 uM relative to control. The assay is classed as cell-based. Conditions: values are per cent of control.
For assay [18], the target named is Muscarinic acetylcholine receptor M1 (Homo sapiens) (UniProt P11229). Description: Displacement of [3H]pirenzepine from human recombinant Muscarinic acetylcholine receptor M1 expressed in CHO cells at 10 uM after 60 mins by scintillation counting relative to control. The assay is classed as cell-based. The note with it: values are per cent of control.
For assay [19], the target named is Muscarinic acetylcholine receptor M3 (Homo sapiens) (UniProt P20309). Description: Displacement of [3H]4-DAMP from human recombinant Muscarinic acetylcholine receptor M3 expressed in CHO cells at 10 uM after 60 mins by scintillation counting relative to control. It is filed as cell-based. Conditions: values are per cent of control.
Assay [20] concerns the target Substance-K receptor (Homo sapiens) (UniProt P21452). The experiment in a line: Displacement of [125I]NKA from human recombinant tachykinin NK2 receptor expressed in CHO cells at 10 uM after 60 mins by scintillation counting relative to control. It is filed as cell-based. Conditions: values are per cent of control.
The target in assay [21] is Kappa-type opioid receptor (Rattus norvegicus) (UniProt P34975). The experiment in a line: Displacement of [3H]U 69593 from rat recombinant kappa opioid receptor expressed in CHO cells at 10 uM after 60 mins by scintillation counting relative to control. The assay is classed as cell-based. The note with it: values are per cent of control.
Assay [22] has as its target 5-hydroxytryptamine receptor 2A (Homo sapiens) (UniProt P28223). The experiment in a line: Displacement of [3H]ketanserin from human recombinant 5-HT2A receptor in HEK293 cells at 10 uM after 60 mins by scintillation counting relative to control. The note with it: values are per cent of control. It is filed as cell-based.
For assay [23], the target named is T1, 5-hydroxytryptamine receptor 2B (Homo sapiens, UniProt P41595). The experiment in a line: Displacement of [125I](+/-)DOI from human recombinant 5-HT2B receptor expressed in CHO cells at 10 uM after 60 mins by scintillation counting relative to control. The assay is classed as cell-based. Conditions: values are per cent of control.
Assay [24] addresses 5-hydroxytryptamine receptor 5A (Homo sapiens) (UniProt P47898). The experiment in a line: Displacement of [3H]LSD from human recombinant 5-HT5a receptor in HEK293 cells at 10 uM after 120 mins by scintillation counting relative to control. The assay is classed as cell-based. Conditions: values are per cent of control.
Assay [25] addresses 5-hydroxytryptamine receptor 6 (Homo sapiens) (UniProt P50406). Description: Displacement of [3H]LSD from human recombinant 5-HT6 receptor expressed in CHO cells at 10 uM after 120 mins by scintillation counting relative to control. It is filed as cell-based. The note with it: values are per cent of control.
The target in assay [26] is 5-hydroxytryptamine receptor 7 (Homo sapiens) (UniProt P34969). The experiment in a line: Displacement of [3H]LSD from human recombinant 5-HT7 receptor expressed in CHO cells at 10 uM after 120 mins by scintillation counting relative to control. It is filed as cell-based. The note with it: values are per cent of control.
Assay [27] deals with Sodium-dependent noradrenaline transporter (Homo sapiens) (UniProt P23975). Description: Displacement of [3H]nisoxetine from human recombinant norepinephrine transporter expressed in CHO cells at 10 uM after 120 mins by scintillation counting relative to control. The assay is classed as cell-based. The note with it: values are per cent of control.
For assay [28], the target named is Sodium-dependent dopamine transporter (Homo sapiens) (UniProt Q01959). The experiment in a line: Displacement of [3H]BTCP from human recombinant dopamine transporter expressed in CHO cells at 10 uM after 120 mins by scintillation counting relative to control. Conditions: values are per cent of control. It is filed as cell-based.
Assay [29] has as its system SW480. Description: Growth inhibition of human SW480 cells assessed as cell death at 25 uM after 72 hrs by MTT assay relative to control. It is filed as functional. Also noted: scale not given: the % may be the effect or the level left.
Assay [30] concerns HT-29. Description: Growth inhibition of human HT-29 cells assessed as cell death at 25 uM after 72 hrs by MTT assay relative to control. The assay is classed as functional. More on the design: scale not given: the % may be the effect or the level left.
Assay [31] can be described thus: Growth inhibition of human SMA cells assessed as cell death at 25 uM after 72 hrs by MTT assay relative to control. It is filed as functional. More on the design: scale not given: the % may be the effect or the level left.
The subject of assay [32] is MCF7. The experiment in a line: Growth inhibition of human MCF7 cells assessed as cell death at 25 uM after 72 hrs by MTT assay relative to control. It is filed as functional. More on the design: scale not given: the % may be the effect or the level left.
In assay [33] the test system is BE(2)-C. Description: Growth inhibition of human BE(2)-C cells assessed as cell death at 25 uM after 72 hrs by MTT assay relative to control. It is filed as functional. More on the design: scale not given: the % may be the effect or the level left.
The nature of assay [34]: Growth inhibition of human SJ-G2 cells assessed as cell death at 25 uM after 72 hrs by MTT assay relative to control. The assay is classed as functional. More on the design: scale not given: the % may be the effect or the level left.
Assay [35] concerns MIA PaCa-2. The experiment in a line: Growth inhibition of human MIAPaCa2 cells assessed as cell death at 25 uM after 72 hrs by MTT assay relative to control. It is filed as functional. More on the design: scale not given: the % may be the effect or the level left.
In assay [36] the test system is A2780. The experiment in a line: Growth inhibition of human A2780 cells assessed as cell death at 25 uM after 72 hrs by MTT assay relative to control. The assay is classed as functional. Also noted: scale not given: the % may be the effect or the level left.
Assay [37] deals with A-431. The experiment in a line: Growth inhibition of human A431 cells assessed as cell death at 25 uM after 72 hrs by MTT assay relative to control. The assay is classed as functional. Also noted: scale not given: the % may be the effect or the level left.
Assay [38] relates to NCI-H460. Description: Growth inhibition of human NCI-H460 cells assessed as cell death at 25 uM after 72 hrs by MTT assay relative to control. It is filed as functional. Also noted: scale not given: the % may be the effect or the level left.
Assay [39] in a line: Growth inhibition of human U87 cells assessed as cell death at 25 uM after 72 hrs by MTT assay relative to control. The assay is classed as functional, U-87MG ATCC. Also noted: scale not given: the % may be the effect or the level left.
Assay [40] has as its system DU-145. The experiment in a line: Growth inhibition of human DU145 cells assessed as cell death at 25 uM after 72 hrs by MTT assay relative to control. It is filed as functional. Also noted: scale not given: the % may be the effect or the level left.
The target of assay [41] is T1, 5-hydroxytryptamine receptor 2B. The experiment in a line: Displacement of [125I](+/-)DOI from human recombinant 5-HT2B receptor expressed in CHO cells after 60 mins by scintillation counting. The assay is classed as cell-based.

T1 sequence (P41595 whole entry): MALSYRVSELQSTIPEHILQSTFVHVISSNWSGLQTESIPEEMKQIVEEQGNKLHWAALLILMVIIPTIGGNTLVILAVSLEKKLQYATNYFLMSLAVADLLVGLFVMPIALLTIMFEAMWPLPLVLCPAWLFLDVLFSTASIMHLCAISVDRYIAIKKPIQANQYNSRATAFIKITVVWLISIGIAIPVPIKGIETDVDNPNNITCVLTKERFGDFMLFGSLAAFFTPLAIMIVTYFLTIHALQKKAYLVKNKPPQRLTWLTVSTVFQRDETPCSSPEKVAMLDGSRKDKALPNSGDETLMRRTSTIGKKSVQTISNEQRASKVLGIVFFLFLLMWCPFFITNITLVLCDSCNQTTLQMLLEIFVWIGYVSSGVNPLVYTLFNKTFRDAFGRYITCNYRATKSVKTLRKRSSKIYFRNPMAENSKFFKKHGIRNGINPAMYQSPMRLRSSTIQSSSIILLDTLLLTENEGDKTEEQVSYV
5-hydroxytryptamine receptor 6 (Homo sapiens), sequence (P50406 whole entry): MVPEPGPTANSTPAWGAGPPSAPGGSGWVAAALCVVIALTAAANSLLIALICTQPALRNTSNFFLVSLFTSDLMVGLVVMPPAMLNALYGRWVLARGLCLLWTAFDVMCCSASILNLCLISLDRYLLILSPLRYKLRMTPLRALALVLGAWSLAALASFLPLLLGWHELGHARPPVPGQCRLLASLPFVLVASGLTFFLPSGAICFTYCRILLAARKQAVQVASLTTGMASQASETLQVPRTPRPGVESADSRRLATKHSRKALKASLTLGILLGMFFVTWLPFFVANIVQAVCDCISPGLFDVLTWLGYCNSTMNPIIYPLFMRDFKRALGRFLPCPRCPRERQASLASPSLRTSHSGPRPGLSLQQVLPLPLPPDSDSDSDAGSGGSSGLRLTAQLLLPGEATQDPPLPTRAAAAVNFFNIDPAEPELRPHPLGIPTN
Melanocortin receptor 4 (Homo sapiens), sequence (P32245 whole entry): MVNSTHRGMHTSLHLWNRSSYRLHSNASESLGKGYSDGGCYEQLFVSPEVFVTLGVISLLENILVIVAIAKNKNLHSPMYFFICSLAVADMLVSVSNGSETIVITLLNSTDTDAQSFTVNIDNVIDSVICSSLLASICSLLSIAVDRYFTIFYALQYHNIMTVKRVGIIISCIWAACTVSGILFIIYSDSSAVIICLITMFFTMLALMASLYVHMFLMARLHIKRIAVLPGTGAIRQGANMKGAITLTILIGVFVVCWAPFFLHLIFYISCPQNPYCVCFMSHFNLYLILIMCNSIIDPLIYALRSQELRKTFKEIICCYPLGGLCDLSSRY
5-hydroxytryptamine receptor 7 (Homo sapiens), sequence (P34969 whole entry): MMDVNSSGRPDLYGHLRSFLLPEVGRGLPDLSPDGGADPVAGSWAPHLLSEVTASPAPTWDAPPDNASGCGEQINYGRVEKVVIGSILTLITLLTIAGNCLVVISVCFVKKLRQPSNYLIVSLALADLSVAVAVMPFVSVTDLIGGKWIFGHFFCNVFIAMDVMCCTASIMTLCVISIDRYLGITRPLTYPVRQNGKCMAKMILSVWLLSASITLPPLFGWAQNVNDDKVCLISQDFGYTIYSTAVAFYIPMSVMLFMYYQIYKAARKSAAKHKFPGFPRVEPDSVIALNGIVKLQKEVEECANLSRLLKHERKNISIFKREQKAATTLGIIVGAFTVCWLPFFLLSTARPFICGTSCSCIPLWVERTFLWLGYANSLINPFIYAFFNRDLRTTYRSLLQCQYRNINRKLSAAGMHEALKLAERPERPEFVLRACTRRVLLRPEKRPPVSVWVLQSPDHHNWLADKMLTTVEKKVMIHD
Sodium-dependent dopamine transporter (Homo sapiens), sequence (Q01959 whole entry): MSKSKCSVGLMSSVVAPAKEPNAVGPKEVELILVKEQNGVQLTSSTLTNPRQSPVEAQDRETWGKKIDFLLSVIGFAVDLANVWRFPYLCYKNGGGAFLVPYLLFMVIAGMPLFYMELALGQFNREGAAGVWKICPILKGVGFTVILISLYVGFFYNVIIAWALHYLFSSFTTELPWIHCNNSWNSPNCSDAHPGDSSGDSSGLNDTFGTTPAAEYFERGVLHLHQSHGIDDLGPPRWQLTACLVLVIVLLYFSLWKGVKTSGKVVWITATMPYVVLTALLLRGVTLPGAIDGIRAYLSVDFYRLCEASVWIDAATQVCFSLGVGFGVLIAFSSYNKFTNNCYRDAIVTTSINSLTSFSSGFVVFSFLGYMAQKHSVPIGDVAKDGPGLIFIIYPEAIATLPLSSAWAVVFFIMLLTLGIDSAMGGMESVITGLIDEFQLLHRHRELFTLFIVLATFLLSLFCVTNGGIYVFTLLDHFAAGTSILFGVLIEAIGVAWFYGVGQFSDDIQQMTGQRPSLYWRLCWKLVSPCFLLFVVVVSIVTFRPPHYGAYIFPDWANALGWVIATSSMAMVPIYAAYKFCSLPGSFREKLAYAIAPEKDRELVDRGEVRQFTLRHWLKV
Muscarinic acetylcholine receptor M3 (Homo sapiens), sequence (P20309 whole entry, looked up): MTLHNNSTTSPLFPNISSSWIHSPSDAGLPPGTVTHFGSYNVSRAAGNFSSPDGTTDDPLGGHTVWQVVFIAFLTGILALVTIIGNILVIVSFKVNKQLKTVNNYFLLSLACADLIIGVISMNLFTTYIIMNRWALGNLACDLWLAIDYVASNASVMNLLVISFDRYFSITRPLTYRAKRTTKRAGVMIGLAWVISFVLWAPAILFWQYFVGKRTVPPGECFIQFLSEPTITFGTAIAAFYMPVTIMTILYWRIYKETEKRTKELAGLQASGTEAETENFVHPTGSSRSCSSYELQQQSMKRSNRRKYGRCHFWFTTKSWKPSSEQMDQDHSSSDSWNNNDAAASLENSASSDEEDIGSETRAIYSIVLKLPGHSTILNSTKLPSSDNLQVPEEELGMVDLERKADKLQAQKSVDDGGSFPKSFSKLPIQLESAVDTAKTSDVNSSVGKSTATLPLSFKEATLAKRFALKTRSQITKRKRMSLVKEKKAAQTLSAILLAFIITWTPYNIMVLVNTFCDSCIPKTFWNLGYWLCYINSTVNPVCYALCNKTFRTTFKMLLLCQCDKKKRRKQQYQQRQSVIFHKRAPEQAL
Histamine H2 receptor (Homo sapiens), sequence (P25021 whole entry): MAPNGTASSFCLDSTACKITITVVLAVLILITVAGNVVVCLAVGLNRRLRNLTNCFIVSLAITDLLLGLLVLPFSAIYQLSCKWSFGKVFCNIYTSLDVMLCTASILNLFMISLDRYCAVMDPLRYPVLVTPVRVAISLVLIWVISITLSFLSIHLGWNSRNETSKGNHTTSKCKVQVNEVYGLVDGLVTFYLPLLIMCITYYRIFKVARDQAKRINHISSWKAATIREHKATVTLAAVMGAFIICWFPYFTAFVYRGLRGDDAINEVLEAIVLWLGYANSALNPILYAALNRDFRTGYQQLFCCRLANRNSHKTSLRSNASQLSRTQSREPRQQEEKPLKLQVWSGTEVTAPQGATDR
D(2) dopamine receptor (Homo sapiens), sequence (P14416 whole entry): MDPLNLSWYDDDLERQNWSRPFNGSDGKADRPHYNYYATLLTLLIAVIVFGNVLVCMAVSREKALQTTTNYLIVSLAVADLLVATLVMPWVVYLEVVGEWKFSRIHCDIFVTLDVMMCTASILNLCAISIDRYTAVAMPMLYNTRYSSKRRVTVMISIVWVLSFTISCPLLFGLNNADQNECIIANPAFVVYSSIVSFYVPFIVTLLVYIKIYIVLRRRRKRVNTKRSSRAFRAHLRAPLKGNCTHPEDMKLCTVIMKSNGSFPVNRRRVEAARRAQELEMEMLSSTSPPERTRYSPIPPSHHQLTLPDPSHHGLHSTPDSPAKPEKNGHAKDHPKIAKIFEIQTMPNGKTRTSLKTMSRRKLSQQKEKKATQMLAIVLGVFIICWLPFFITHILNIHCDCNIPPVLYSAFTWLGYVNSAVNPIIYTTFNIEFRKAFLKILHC
Kappa-type opioid receptor (Rattus norvegicus), sequence (P34975 whole entry): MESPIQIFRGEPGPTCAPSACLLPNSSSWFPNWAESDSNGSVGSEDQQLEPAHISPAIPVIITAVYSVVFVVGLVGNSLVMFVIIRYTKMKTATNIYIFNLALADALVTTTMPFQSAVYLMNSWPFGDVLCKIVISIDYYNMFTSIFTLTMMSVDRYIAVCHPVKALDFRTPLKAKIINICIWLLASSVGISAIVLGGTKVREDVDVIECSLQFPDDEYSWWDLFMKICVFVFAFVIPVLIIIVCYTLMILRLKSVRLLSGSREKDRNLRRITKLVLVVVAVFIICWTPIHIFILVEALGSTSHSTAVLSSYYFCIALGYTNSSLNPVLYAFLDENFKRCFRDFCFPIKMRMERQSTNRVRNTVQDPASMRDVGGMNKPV
Histamine H1 receptor (Homo sapiens), sequence (P35367 whole entry): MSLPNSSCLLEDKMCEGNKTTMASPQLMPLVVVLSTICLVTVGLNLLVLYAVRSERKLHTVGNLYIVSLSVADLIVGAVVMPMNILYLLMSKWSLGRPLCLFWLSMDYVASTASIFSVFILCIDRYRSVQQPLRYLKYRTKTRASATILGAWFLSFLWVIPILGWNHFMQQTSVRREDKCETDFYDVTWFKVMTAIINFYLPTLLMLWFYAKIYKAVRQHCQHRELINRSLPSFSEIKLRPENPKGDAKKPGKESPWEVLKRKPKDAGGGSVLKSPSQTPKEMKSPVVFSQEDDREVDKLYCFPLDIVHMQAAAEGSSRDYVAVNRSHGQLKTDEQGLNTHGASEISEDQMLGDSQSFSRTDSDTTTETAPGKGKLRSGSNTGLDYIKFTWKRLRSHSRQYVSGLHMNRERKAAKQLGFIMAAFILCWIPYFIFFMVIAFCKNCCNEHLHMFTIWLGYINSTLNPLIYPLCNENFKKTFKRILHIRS
5-hydroxytryptamine receptor 5A (Homo sapiens), sequence (P47898 whole entry): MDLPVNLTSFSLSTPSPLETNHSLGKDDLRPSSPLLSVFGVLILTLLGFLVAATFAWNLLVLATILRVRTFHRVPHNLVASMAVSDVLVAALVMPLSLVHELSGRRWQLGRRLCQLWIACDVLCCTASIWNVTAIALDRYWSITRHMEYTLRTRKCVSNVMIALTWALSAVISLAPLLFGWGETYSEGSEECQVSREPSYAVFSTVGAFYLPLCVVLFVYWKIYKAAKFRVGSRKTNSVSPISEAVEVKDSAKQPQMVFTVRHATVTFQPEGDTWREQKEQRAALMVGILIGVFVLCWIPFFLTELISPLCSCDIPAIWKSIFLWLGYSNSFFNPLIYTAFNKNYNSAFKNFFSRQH

The IC50 is the concentration at which inhibition is half-maximal. In general, GI50 refers to the concentration that inhibits growth by half. On to `CCCCCCCCCCCCNc1nc(C)cc(NCCN(C)C)n1`, for which the IC50 in assay [1] came to 1400 nM. Also, the GI50 in assay [2] was 800 nM; in assay [3], 1400 nM; in assay [4], 1300 nM; in assay [5] it was 1500 nM; in assay [6] it was 1500 nM; in assay [7], 1500 nM. Also, the GI50 in assay [8] came out at 1500 nM; in [9], 1800 nM; in assay [10] it was 1700 nM; in assay [11], 2500 nM; in assay [12], 1500 nM; in [13], 1900 nM. In addition, the residual binding, % of control in [14] stood at 99%; in [15], 102%; in assay [16], 106%; in assay [17] it was 96%; in assay [18] it was 91%; in assay [19] it was 104%. The residual binding, % of control in [20] amounted to 93%; in assay [21], 97%; in [22], 93%; in assay [23], 94%; in [24], 99%; in assay [25], 91%. Also, the residual binding, % of control is 98% in assay [26], 96% in [27] and 105% in [28].
Consider `CCCCCCCCCCCCNc1nc(C)cc(Cl)n1`, for which the IC50 in [1] was > 300000 nM. Besides, the Activity in [29] is given as 37%; in [30], 56%; in assay [31], 65%; in [32] it was 53%; in [33], 46%; in assay [34] it was 25%. In addition, the Activity in assay [35] is on record as 42%; in assay [36] it was 63%; in assay [37] it was 25%; in [38], 21%; in assay [39] it was 21%; in assay [40] it was 42%.
Broadly, the Ki is the equilibrium dissociation constant of an inhibitor or competing ligand from its target. For `COc1cc(CC(C)N)c(OC)cc1I` (racemic), in assay [41], the Ki came out at 1.6 nM.

These data come from ChEMBL document CHEMBL4000185, “Pyrimidine-Based Inhibitors of Dynamin I GTPase Activity: Competitive Inhibition at the Pleckstrin Homology Domain” (J Med Chem, 2017).
